In US8697687B2, “Treating diseases mediated by blockade of the epithelial sodium channel with pyrazine-2-carboxamide derivatives” (Novartis AG, priority 2007, dated 2014):

Biological target: T1, epithelial sodium channel (ENaC) (Homo sapiens, UniProt P37088+P51168+P51170)
T1 construct: host or cells: primary Human Bronchial Epithelial cells (HBECs), air-liquid interface culture
T1 sequence (P37088 1-669): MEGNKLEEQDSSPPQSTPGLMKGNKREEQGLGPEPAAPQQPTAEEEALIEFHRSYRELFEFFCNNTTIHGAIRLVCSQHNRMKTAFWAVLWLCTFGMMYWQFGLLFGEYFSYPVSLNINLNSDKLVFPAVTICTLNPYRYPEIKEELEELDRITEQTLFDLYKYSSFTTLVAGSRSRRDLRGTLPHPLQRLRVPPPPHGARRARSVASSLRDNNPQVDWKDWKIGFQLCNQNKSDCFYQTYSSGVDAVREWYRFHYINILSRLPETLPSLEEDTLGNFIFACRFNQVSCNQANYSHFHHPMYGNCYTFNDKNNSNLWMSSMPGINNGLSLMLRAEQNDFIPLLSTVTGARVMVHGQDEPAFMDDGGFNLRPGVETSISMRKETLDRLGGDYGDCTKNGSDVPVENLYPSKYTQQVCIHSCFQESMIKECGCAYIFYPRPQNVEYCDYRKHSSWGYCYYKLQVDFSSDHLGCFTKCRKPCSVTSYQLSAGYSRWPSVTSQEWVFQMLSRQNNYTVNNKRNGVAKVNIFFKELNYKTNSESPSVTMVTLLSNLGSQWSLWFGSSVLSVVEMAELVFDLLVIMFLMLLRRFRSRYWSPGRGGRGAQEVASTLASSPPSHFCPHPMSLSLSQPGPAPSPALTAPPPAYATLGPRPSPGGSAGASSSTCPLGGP
T1 sequence (P51168 1-640): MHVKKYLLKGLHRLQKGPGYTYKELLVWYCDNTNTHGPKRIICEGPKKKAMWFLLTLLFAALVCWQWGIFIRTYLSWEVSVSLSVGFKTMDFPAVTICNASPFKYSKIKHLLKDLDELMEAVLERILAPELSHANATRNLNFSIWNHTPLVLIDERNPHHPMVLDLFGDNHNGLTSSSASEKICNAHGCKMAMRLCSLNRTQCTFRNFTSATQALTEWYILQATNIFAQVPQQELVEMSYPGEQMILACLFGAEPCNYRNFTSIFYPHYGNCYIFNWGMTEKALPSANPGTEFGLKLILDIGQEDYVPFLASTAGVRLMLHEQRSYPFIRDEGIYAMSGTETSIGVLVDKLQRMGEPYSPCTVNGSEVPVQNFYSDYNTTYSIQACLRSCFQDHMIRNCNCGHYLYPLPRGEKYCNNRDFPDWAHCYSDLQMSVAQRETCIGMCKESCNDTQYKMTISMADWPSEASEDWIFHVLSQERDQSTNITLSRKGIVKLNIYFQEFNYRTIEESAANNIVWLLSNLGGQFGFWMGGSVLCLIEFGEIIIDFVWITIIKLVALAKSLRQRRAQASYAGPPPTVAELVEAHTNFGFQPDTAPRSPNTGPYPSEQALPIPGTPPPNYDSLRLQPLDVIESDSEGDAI
T1 sequence (P51170 1-649): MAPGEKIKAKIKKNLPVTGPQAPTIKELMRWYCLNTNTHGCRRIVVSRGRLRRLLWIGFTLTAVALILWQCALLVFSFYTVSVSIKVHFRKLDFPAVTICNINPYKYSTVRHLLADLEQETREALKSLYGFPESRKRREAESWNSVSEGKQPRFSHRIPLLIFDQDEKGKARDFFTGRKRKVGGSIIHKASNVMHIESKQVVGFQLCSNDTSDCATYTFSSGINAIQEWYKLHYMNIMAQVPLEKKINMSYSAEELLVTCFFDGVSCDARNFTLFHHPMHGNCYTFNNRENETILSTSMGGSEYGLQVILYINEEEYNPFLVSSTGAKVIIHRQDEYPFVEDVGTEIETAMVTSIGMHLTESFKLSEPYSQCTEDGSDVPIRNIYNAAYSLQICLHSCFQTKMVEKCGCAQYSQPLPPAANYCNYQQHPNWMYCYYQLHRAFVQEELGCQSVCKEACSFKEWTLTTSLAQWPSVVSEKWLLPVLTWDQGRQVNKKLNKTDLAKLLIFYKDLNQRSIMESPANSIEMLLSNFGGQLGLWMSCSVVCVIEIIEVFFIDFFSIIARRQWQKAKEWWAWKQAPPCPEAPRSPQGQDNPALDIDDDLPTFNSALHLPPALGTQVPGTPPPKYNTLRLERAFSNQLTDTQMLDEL
Test: Short circuit current (ISC) measurements in Human Bronchial Epithelial cells, inhibition of amiloride-sensitive ISC
Assay type: cell-based
Conditions: inhibition of the amiloride-sensitive ISC; Human Bronchial Epithelial cells (HBECs) at air-liquid interface; compound added to apical chamber; read-out: IC50
Experimental: Compounds of formula (I) and their pharmaceutically acceptable salts, hereinafter referred to alternatively as “agents of the invention”, are useful as pharmaceuticals. In particular, the compounds have good ENaC blocker activity and may be tested in the following assays.
Human Bronchial Epithelial cells (HBECs) (Cambrex) were cultured under air-liquid interface conditions to provide a well differentiated mucociliary phenotype.
HBECs were cultured using a modification of the method described by Gray and colleagues (Gray et al., 1996). Cells were seeded in plastic T-162 flasks and were grown in bronchial epithelial cell growth medium (BEGM; Cambrex) supplemented with bovine pituitary extract (52 μg/mL), hydrocortisone (0.5 μg/mL), human recombinant epidermal growth factor (0.5 ng/mL), epinephrine (0.5 μg/mL), transferrin (10 μg/mL), insulin (5 μg/mL), retinoic acid (0.1 μg/mL), triiodothyronine ([…]), gentamycin (50 μg/mL) and amphotericin B (50 ng/mL). Medium was changed every 48 hours until cells were 90% confluent. Cells were then passaged and seeded (8.25×10^5 cells/insert) on polycarbonate Snapwell inserts (Costar) in differentiation media containing 50% DMEM in BEGM with the same supplements as above but without triiodothyronine and a final retinoic acid concentration of 50 nM (all-trans retinoic acid). Cells were maintained submerged for the first 7 days in culture, after which time they were exposed to an apical air interface for the remainder of the culture period. At this time, media was changed to DMEM:F12 media containing 2% v/v Ultroser G for the remainder of culture. Amphotericin B was removed from all media 3 feeds prior to use in the Using Chambers. Cells were used between days 7 and 21 after establishment of the apical-air interface. At all stages of culture, cells were maintained at 37° C. in 5% CO2 in an air incubator.
Short Circuit Current (ISC) Measurements
Snapwell inserts were mounted in Vertical Diffusion Chambers (Costar) and were bathed with continuously gassed Ringer solution (5% CO2 in O2; pH 7.4) maintained at 37° C. containing (in mM): 120 NaCl, 25 NaHCO3, 3.3 KH2PO4, 0.8 K2HPO4, 1.2 CaCl2, 1.2 MgCl2, and 10 glucose. The solution osmolarity was between 280 and 300 mOsmol/kg H2O for all physiological salt solutions used. Cells were voltage clamped to 0 mV (model EVC4000; WPI). RT was measured by applying a 1- or 2-mV pulse at 30-s intervals and calculating RT by Ohm's law. Data were recorded using a PowerLab workstation (ADInstruments).
Test compounds were prepared as a 10 mM stock solution in DMSO (95%). Serial 3-fold dilutions were freshly prepared in an appropriate vehicle (distilled H2O or Ringers solution). The initial concentration was added to the apical chamber as a 1000× concentrate in 5 μL, resulting in a final 1× concentration the 5 mL volume of the Ussing chamber. Subsequent additions of compound were added in a 3.3 μL volume of the 1000× serially diluted stock solution. At the completion of the concentration-response experiment, amiloride (10 μM) was added into the apical chamber to enable the total amiloride-sensitive current to be measured. An amiloride control IC50 was established at the start of each experiment.
Results are expressed as the mean % inhibition of the amiloride-sensitive ISC. Concentration-response curves were plotted and IC50 values generated using GraphPad Prism 3.02. Cell inserts were typically run in duplicate and the IC50 calculated on the mean % inhibition data.

| IC50 | SMILES |
| --- | --- |
| 9 nM | Nc1nc(N)c(C(=O)/N=C2\NCC3(CCN(C(=O)[C@H]4CC[C@H](C(=O)N5CCC6(CC5)CN/C(=N\C(=O)c5nc(Cl)c(N)nc5N)N6)CC4)CC3)N2)nc1Cl [Example 94] |
| 36 nM | Nc1nc(N)c(C(=O)/N=C2\NCC3(CCN(C(=O)NCc4ccccc4)CC3)N2)nc1Cl [Example 215, 2-[(E)-3,5-Diamino-6-chloro-pyrazine-2-carbonylimino]-1,3,8-triaza-spiro[4.5]decane-8-carboxylic acid benzylamide] |
| 2 nM | Nc1nc(N)c(C(=O)/N=C2\NCC3(CCN(C(=O)c4cccc(S(=O)(=O)N5CCC(S(=O)(=O)c6ccccc6)C5)c4)CC3)N2)nc1Cl (stereo not drawn) [Example 141, 3,5-Diamino-6-chloro-pyrazine-2-carboxylic acid [8-[3-(3-benzenesulfonyl-pyrrolidine-1-sulfonyl)-benzoyl]-1,3,8-triaza-spiro[4.5]dec-(2E)-ylidene]-amide] |
| 175 nM | Nc1nc(N)c(C(=O)/N=C2\NCC3(CCN(C(=O)c4cocn4)CC3)N2)nc1Cl [Example 118, 3,5-Diamino-6-chloro-pyrazine-2-carboxylic acid [8-(oxazole-4-carbonyl)-1,3,8-triaza-spiro[4.5]dec-(2E)-ylidene]-amide] |
| 93.5 nM | Nc1nc(N)c(C(=O)/N=C2\NCC3(CCN(C(=O)NCCCc4ccccn4)CC3)N2)nc1Cl [Example 228, 2-[(E)-3,5-Diamino-6-chloro-pyrazine-2-carbonylimino]-1,3,8-triaza-spiro[4.5]decane-8-carboxylic acid (3-pyridin-2-yl-propyl)-amide] |
| 16 nM | Cc1ccc(S(=O)(=O)n2ccc(C(=O)N3CCC4(CC3)CN/C(=N\C(=O)c3nc(Cl)c(N)nc3N)N4)c2)cc1 [Example 147, 3,5-Diamino-6-chloro-pyrazine-2-carboxylic acid [8-[1-(toluene-4-sulfonyl)-1H-pyrrole-3-carbonyl]-1,3,8-triaza-spiro[4.5]dec-(2E)-ylidene]-amide] |
| 13 nM | CC(C)NC(=O)Nc1cc(C(=O)N2CCC3(CC2)CN/C(=N\C(=O)c2nc(Cl)c(N)nc2N)N3)ccn1 [Example 62, 3,5-Diamino-6-chloro-pyrazine-2-carboxylic acid [8-[2-(3-isopropyl-ureido)-pyridine-4-carbonyl]-1,3,8-triaza-spiro[4.5]dec-(2E)-ylidene]-amide] |
| 13 nM | CC(C)NC(=O)Nc1cccc(C(=O)N2CCC3(CC2)CN/C(=N\C(=O)c2nc(Cl)c(N)nc2N)N3)c1 [Example 43, 3,5-Diamino-6-chloro-pyrazine-2-carboxylic acid [8-[3-(3-isopropyl-ureido)-benzoyl]-1,3,8-triaza-spiro[4.5]dec-(2E)-ylidene]-amide] |
| 143 nM | Cc1nc(-c2ccccc2)ncc1C(=O)N1CCC2(CC1)CN/C(=N\C(=O)c1nc(Cl)c(N)nc1N)N2 [Example 58, 3,5-Diamino-6-chloro-pyrazine-2-carboxylic acid [8-(4-methyl-2-phenyl-pyrimidine-5-carbonyl)-1,3,8-triaza-spiro[4.5]dec-(2E)-ylidene]-amide] |

Further lines, the compound ahead of its results:

| SMILES | IC50 |
| --- | --- |
| Nc1nc(N)c(C(=O)/N=C2\NC[C@H](CCCCNS(=O)(=O)Cc3ccccc3)N2)nc1Cl [Example 35, 3,5-Diamino-6-chloro-pyrazine-2-carboxylic acid [(S)-4-(4-phenylmethanesulfonylamino-butyl)-imidazolidin-(2E)-ylidene]-amide] | 31 nM |
| Nc1nc(N)c(C(=O)N=C2NC3CCCCC3N2)nc1Cl (stereo not drawn) [Example 11, 3,5-Diamino-6-chloro-pyrazine-2-carboxylic acid (octahydro-benzoimidazol-2-ylidene)-amide] | 1690 nM |
| Nc1nc(N)c(C(=O)/N=C2/NC[C@@H](CCCc3ccc(OC[C@@H](O)CO)cc3)N2)nc1Cl [Example 19, 3,5-Diamino-6-chloro-pyrazine-2-carboxylic acid [(R)-4-{3-[4-((S)-2,3-dihydroxy-propoxy)-phenyl]-propyl}-imidazolidin-(2Z)-ylidene]-amide] | 18 nM |
| Nc1nc(N)c(C(=O)/N=C2\NC[C@H](CCCNC(=O)NCc3ccccc3)N2)nc1Cl [Example 32, 3,5-Diamino-6-chloro-pyrazine-2-carboxylic acid [(S)-4-[3-(3-benzyl-ureido)-propyl]-imidazolidin-(2E)-ylidene]-amide] | 18 nM |
| CC(C)(CCOCc1ccccc1)C[C@H]1CN/C(=N/C(=O)c2nc(Cl)c(N)nc2N)N1 [Example 26] | 11 nM |
| Nc1nc(N)c(C(=O)/N=C2\NCC3(CCN(C(=O)Cc4nnc(-c5ccccc5)[nH]4)CC3)N2)nc1Cl [Example 42, 3,5-Diamino-6-chloro-pyrazine-2-carboxylic acid [8-[2-(5-phenyl-4H-[1,2,4]triazol-3-yl)-acetyl]-1,3,8-triaza-spiro[4.5]dec-(2E)-ylidene]-amide] | 11 nM |
